Reference: patent publication US12564600B2, “System for enhancing therapeutic compliance of the anti-cancer compound E7766” (Eisai R&D Management Co., Ltd., priority 2019, dated 2026)
≈ marks a conversion by molar mass, not a printed value.

Tests used:
[1] = Permeability (Papp); format: in vitro ADME; details: not told
[2] = Pharmacokinetics and excretion in bile duct-cannulated rat, single IV dose; format: in vivo, Sprague Dawley rats; details: IV 1 mg/kg, Mean SD
Description: Male bile duct-cannulated beagle dogs or Sprague Dawley rats (n=3) were given a single intravenous (IV) dose of Compound 1. Plasma, urine and bile samples were collected from the dogs, and blood, urine, bile and feces samples were collected from rats up to 48 hours post-dose. Blood samples were kept on wet ice after collection until centrifuged for separation of plasma. Urine samples were collected at intervals 0 to 4, 4 to 8, 8 to 24, and 24 to 48 hours post-dose into collection tubes on wet ice. Bile samples were collected at intervals 0 to 4, 4 to 8, 8 to 24, and 24 to 48 hours post-dose into collection tubes cooled via an ice pack. Feces samples for rats were collected over 0 to 24 hour interval. All samples were transferred into properly labeled tubes and stored at −70° C. until pending shipment to the bioanalytical facility. All samples were analyzed using LC-MS/MS and the pharmacokinetic parameters of Compound 1 were determined with Phoenix WinNonlin using non-compartmental analysis.
Data are shown as Mean SD. NC indicates Not Collected.

[3] = Physicochemical properties and ECCS classification of Compound 1
[4] = tested on: sandwich-cultured human hepatocytes (SCHH); assay: Hepatic uptake in sandwich-cultured human hepatocytes; format: in vitro ADME
Description: Hepatic uptake and hepatobiliary disposition of Compound 1 was evaluated in sandwich-cultured human hepatocytes (SCHH) prepared from one donor. For assessing hepatic uptake, Compound 1 was incubated for 1, 5, and 10 minutes and the solutions were collected and frozen at −80° C. until process for bioanalysis. The wells were then washed three times with ice cold Plus (+) Buffer and were frozen at −80° C. until processed for bioanalysis. Biliary excretion of compound 1 was assessed in SCHH utilizing B-CLEAR® Technology. Briefly, cell culture medium was removed, and hepatocytes were washed twice with warm Plus (+) or Minus (−) Buffer to maintain or disrupt tight junctions, respectively. The wash solutions were removed and replaced with fresh Plus (+) Buffer or Minus (−) Buffer. The hepatocytes were conditioned for 10 minutes at 37° C. The conditioning solutions were removed and replaced with dosing solutions for Compound 1. Following a 20 minute incubation, the solutions were collected and frozen at −80° C. until process for bioanalysis. The wells were then washed three times with ice cold Plus (+) Buffer. The plates were frozen at −80° C. until processed for bioanalysis. The biliary excretion index (BEI) was calculated according to following equation: […]

O=[P@]1(S)OC[C@H]2O[C@@H]3[C@H](F)[C@@H]2O[P@](=O)(S)OC[C@H]2O[C@H]([C@H](F)[C@@H]2O1)n1cnc2c(ncnc21)NC/C=C/CNc1ncnc2c1ncn23 [Compound 1]
Papp [1]: 0.36 ×10⁻⁶ cm/s | % Ae, feces ([2]; 0 to 24 h): 0.4 ± 0.2% | % Ae, urine ([2]; up to 48 h, 1 mg/kg): 13.7 ± 2.8% | solubility [3]: 150 µM (≈ 112 µg/mL) | logD ([3]; read-out: measured Log D): 1.31 | pKa ([3]; read-out: measured pKa): 3.41 | concentration at which hepatic uptake is saturated ([4]; SCHH): > 1000 nM | dose proportionality of hepatic uptake ([4]; SCHH, 0.3 to 1 μM, 1 to 5 minutes of exposure): approximately dose-proportional | hepatic uptake at 4° C. relative to 37° C. ([4]; SCHH, incubation at 4° C.): < 7.7 % of 37 °C | mechanism of uptake in human hepatocytes ([4]; human hepatocytes): temperature-dependent active uptake | inhibition of hepatocyte uptake by transporter inhibitors ([4]; human hepatocytes, Rifampin, tetraethylammonium): could be inhibited by Rifampin but not by tetraethylammonium
